Data as given in patent US9629834B2, “Medicinal composition for inhibiting formation and/or enlargement of cerebral aneurysm or shrinking same” (KYOTO UNIVERSITY, priority 2013, dated 2017).

Assays:
Assay type in all cases: in vivo, SD rat
[1] = Influences on blood pressure and heart rate of rats (tail-cuff method); conditions: 0.03 or 0.1 mg/kg oral once a day, Day 1 to Day 27; measured Day 28, without anesthesia; FIG. 7A and FIG. 7B
Method: Immediately before dissecting rats 28 days after surgery (Day 28) as described in the section (1) of Example 1, blood pressure and heart rate of each of rats were measured noninvasively without anesthesia by a tail-cuff method. The measurement was conducted by using a noninvasive blood pressure measuring device for rats and mice BP-98A (Softron). The measurement was conducted three times per rat, and the mean value was used for calculating the mean value of all rats in each of the groups. No influence of the administration of Compound 1 on any blood pressure (SBP: systolic blood pressure, MBP: mean blood pressure, DBP: diastolic blood pressure) or heart rate was observed.

[2] = tested on: cerebral aneurysm model; assay: Inhibitory effect on formation of cerebral aneurysm in cerebral aneurysm model (EvG staining, size of aneurysm); conditions: 0.03 mg/5 mL or 0.1 mg/5 mL suspension, 5 mL/kg, forced oral, once a day, Day 1 to Day 27; Day 28; FIG. 5
Method: A rat model of cerebral aneurysm was prepared according to the method disclosed on the literature by Hashimoto et al. (Surgical Neurology 1978, Vol. 10, p. 3-8). Namely, 50 mg/kg of pentobarbital was administrated intraperitoneally to a 7-week-old male SD rat, and the left common carotid artery and the left renal artery were ligated by using 10-0 nylon thread under anesthesia (this is referred to as the surgery for inducing cerebral aneurysm). From the day after surgery (Day 1), the rat was reared with being fed a high-salt diet. During a rearing period, the rat was given free access to water. Forced oral administration of 0.03 mg/5 mL or 0.1 mg/5 mL of the suspension of Compound 1 to the cerebral aneurysm model was conducted once a day at a dose of 5 mL/kg from the day after surgery, i.e., 1 day after surgery (Day 1) to 27 days after surgery (Day 27). It should be noted that forced oral administration of the 0.5% MC solution (0 mg/5 mL of the suspension of Compound 1) to the cerebral aneurysm model was conducted once a day at a dose of 5 mL/kg. The group of these rats was defined as a vehicle group. 28 Days after surgery (Day 28), the right olfactory artery/anterior cerebral artery bifurcation containing cerebral aneurysm was extirpated and was fixed with 4% paraformaldehyde, and then the solution was replaced with a 30% sucrose solution, and thereafter, the extirpated bifurcation was frozen to prepare a specimen of a frozen section having a thickness of 5 μm, by similar procedures to the steps 1) and 2) of the method of Reference Example 2. This specimen was subjected to EvG staining and the formation of cerebral aneurysm was confirmed. The size of cerebral aneurysm was measured and evaluation was conducted. The maximum diameter (Maximum) represents the maximum distance between internal elastic lamina disruption sites observed by EvG staining, the height “Height” represents the maximum value of height defined as the length of the perpendicular line drawn from the line connecting the two ends of internal elastic lamina, and the mean diameter “Mean” represents the mean value of the maximum diameter and the height. This evaluation was conducted on all the rats (8 or 9 rats) of each of the groups, and the mean value of each of the groups was calculated. The administration of 0.1 mg/5 mL of a suspension of Compound 2 to the cerebral aneurysm model was started on the day of the surgery (Day 0) at a dose of 5 mL/kg, and forced oral administration was conducted once a day until 26 days after surgery (Day 26). The size of cerebral aneurysm was measured by using the protocol of Example 1. […] The size of cerebral aneurysm was measured by using the protocol of Example 1. […] The size of cerebral aneurysm was measured by using the protocol of Example 1.

[3] = tested on: MCP-1; assay: Suppression of expression of MCP-1 at cerebral artery bifurcation (immunostaining); conditions: vs group without drug, FIG. 4
[4] = tested on: macrophages (F4/80-positive cells); assay: Infiltration of macrophages into cerebral aneurysm formation site (F4/80 immunostaining); conditions: Day 1 to Day 27, Day 28, vs vehicle group, FIG. 3B
Method: A rat model of cerebral aneurysm was prepared according to the method disclosed on the literature by Hashimoto et al. (Surgical Neurology 1978, Vol. 10, p. 3-8). Namely, 50 mg/kg of pentobarbital was administrated intraperitoneally to a 7-week-old male SD rat, and the left common carotid artery and the left renal artery were ligated by using 10-0 nylon thread under anesthesia (this is referred to as the surgery for inducing cerebral aneurysm). From the day after surgery (Day 1), the rat was reared with being fed a high-salt diet. During a rearing period, the rat was given free access to water. Forced oral administration of 0.03 mg/5 mL or 0.1 mg/5 mL of the suspension of Compound 1 to the cerebral aneurysm model was conducted once a day at a dose of 5 mL/kg from 1 day after surgery (Day 1) to 27 days after surgery (Day 27). 28 Days after surgery (Day 28), the treatments on the right olfactory artery/anterior cerebral artery bifurcation containing cerebral aneurysm were conducted by using similar procedures to the steps 1) to 5) of Reference Example 2, and a section of the bifurcation was prepared. […] Under the observation with a confocal microscope, the number of macrophages was counted in an area of 100 μm square centered around the cerebrovascular bifurcation where cerebral aneurysm developed. The measurement was conducted on five rats and the mean value was calculated. […]

With `C[C@H](Oc1ccc(-c2nc(-c3ccc4[nH]cnc4c3)no2)cc1C(F)(F)F)C(F)(F)F.Cl` [Compound 1, 5-{5-[3-(trifluoromethyl)-4-{[(2S)-1,1,1-trifluoropropan-2-yl]oxy}phenyl]-1,2,4-oxadiazol-3-yl}-1H-benzimidazole hydrochloride] the “influence on blood pressure (SBP, MBP, DBP)” value [1] was “No influence”, the “influence on heart rate” value [1] was “No influence” and the “formation of cerebral aneurysm (size: Maximum, Height, Mean)” value [2] was “inhibited the formation of cerebral aneurysm”. For the same compound, the “expression of MCP-1 in cerebral aneurysm walls” value ([3]; 0.03 mg/kg oral once a day) was “suppressed as compared to the group without being administered a drug”, the “expression of MCP-1 in cerebral aneurysm walls” value ([3]; 0.1 mg/kg oral once a day) was “suppressed as compared to the group without being administered a drug” and the “number of macrophages at the cerebral aneurysm formation site” value ([4]; 0.03 mg/kg oral once a day) was “decreased as compared to the number of macrophages in the vehicle group”. The “number of macrophages at the cerebral aneurysm formation site” value ([4]; 0.1 mg/kg oral once a day) was “decreased as compared to the number of macrophages in the vehicle group”.
